Read-outs that look alike come from different tables or passages of the source.
What was measured:
[1] = cited from earlier work
[2] = molecular target: T1, mMATE1 (Mus musculus, UniProt Q8K0H1); test: cell-based
T1 sequence (Q8K0H1 1-567): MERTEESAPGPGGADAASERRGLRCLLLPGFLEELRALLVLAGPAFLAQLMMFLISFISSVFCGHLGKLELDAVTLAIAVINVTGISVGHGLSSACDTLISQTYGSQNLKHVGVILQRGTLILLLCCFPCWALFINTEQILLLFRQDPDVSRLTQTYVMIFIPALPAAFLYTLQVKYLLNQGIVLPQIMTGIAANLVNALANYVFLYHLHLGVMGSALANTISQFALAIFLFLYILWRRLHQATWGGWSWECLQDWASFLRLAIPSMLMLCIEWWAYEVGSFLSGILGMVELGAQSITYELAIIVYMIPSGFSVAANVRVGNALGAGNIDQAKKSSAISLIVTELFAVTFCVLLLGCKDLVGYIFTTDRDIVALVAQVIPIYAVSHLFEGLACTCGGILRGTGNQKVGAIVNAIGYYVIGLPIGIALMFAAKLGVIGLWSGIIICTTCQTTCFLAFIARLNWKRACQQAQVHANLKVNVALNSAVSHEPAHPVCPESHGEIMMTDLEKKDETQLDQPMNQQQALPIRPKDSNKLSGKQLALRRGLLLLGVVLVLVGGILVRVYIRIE

[3] = tested on: LLC-PK1; conditions: LLC-PK1 cells; cited from earlier work
[4] = molecular target: T2, hMATE2-K (Homo sapiens, UniProt Q86VL8); test: cell-based
Description: (§1) For transient expression, HEK293 cells were seeded on 24-well (2 × 10^5 cells/well) poly-D-lysine-coated plates (BD Biocoat, Franklin Lakes, NJ, USA) and transfected with hMATE1, hMATE2-K and mMATE1 cDNA containing plasmid vectors and empty vectors (pcDNA3.1(+) for hMATE1 and hMATE2-K, pFLAG for mMATE1) by using the LipofectAMINE 2000 Reagent (Life Technologies Corporation), according to the manufacturer’s instructions. The cells were used for uptake experiments at 48 h after transfection, while the empty vector-expressing cells were used as control.
(§2) The cells were dissolved in 0.5 mL of 0.5 normality (N) sodium hydroxide (NaOH), and then, the radioactivity in 200 µL was determined using liquid scintillation counting following addition to 2 mL of Ultima Gold (PerkinElmer). The protein content of each NaOH solution was determined using a Bio-Rad Protein Assay Kit (Bio-Rad Laboratories, Hercules, CA, USA) by using bovine γ-globulin as a standard. The Km and Vmax values were calculated from the saturation curve using the Michaelis–Menten equation, V = Vmax[S]/(Km + [S]), with Kaleidagraph Version 4.00 (Synergy Software, Reading, PA, USA) after the nonspecific uptake values were subtracted.

[5] = molecular target: T2, hMATE2-K; conditions: [3H]dopamine uptake, HEK293 cells expressing hMATE2-K
Description: as §1, §2

[6] = molecular target: T1, mMATE1; conditions: [3H]dopamine uptake, HEK293 cells expressing mMATE1
Description: as §1, §2

[7] = molecular target: T3, hMATE1 (Homo sapiens, UniProt Q96FL8); test: [3H]dopamine uptake kinetics in HEK293 cells transiently expressing hMATE1; format: cell-based
T3 sequence (Q96FL8 1-570): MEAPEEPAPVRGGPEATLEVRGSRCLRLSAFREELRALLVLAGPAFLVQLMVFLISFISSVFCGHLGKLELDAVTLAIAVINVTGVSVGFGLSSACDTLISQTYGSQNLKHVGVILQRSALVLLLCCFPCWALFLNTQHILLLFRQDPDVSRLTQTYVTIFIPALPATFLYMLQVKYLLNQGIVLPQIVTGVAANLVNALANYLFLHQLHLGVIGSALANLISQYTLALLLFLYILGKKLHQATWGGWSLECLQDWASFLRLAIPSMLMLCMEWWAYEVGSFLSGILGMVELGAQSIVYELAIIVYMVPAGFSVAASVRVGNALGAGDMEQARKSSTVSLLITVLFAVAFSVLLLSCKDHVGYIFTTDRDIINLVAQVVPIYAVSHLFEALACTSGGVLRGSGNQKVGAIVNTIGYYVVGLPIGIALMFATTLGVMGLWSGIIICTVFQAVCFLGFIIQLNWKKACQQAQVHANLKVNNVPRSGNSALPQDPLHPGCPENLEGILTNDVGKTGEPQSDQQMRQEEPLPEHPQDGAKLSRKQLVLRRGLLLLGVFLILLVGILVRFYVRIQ
Description: as §1, §2

[8] = patients with CML (imatinib also gastrointestinal stromal tumors), efficacy target for imatinib and nilotinib, safety limit for dasatinib

T2 sequence (Q86VL8 1-566 isoform Q86VL8-3): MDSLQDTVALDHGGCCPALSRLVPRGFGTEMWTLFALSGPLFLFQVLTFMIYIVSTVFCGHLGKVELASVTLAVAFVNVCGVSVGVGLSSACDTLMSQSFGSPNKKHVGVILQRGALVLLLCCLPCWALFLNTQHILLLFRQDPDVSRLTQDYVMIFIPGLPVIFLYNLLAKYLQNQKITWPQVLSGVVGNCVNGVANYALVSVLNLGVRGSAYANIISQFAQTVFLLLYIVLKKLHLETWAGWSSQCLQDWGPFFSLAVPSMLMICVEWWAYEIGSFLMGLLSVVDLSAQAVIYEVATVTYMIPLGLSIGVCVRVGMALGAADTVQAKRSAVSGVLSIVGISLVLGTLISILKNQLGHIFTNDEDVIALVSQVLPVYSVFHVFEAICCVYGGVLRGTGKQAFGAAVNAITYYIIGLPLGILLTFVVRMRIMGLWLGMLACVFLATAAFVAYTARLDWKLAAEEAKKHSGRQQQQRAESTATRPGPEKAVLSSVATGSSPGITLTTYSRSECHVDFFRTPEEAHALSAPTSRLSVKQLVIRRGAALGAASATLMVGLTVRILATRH

SMILES | plasma trough concentration (Ctrough), clinical target [1, 8] | plasma trough concentration (Ctrough), clinical target ([1]; same targets in molar units) | IC50 [2] | inhibition of outward transfer of synthesized dopamine [3] | further results
Cc1nc(Nc2ncc(C(=O)Nc3c(C)cccc3Cl)s2)cc(N2CCN(CCO)CC2)n1 [Dasatinib, dasatinib] | ≤ 2.5 ng/mL | ≤ 0.005 µM | 106 ± 7 µM | – | –
Fc1ccc(C(OCCN2CCN(CCCc3ccccc3)CC2)c2ccc(F)cc2)cc1 [GBR-12909] | – | – | – | failed to inhibit | –
Cc1cn(-c2cc(NC(=O)c3ccc(C)c(Nc4nccc(-c5cccnc5)n4)c3)cc(C(F)(F)F)c2)cn1 [Nilotinib, nilotinib] | > 761 ng/mL | > 1.4 µM | > 100 µM | – | IC50 [4]: > 100 µM
COC(=O)[C@H]1[C@@H](OC(=O)c2ccccc2)C[C@@H]2CC[C@H]1N2C [cocaine] | – | – | – | failed to inhibit | –
NCCc1ccc(O)c(O)c1 [dopamine] | – | – | – | – | Vmax [5]: 7.69 ± 1.12 nmol·mg·protein^−1·min^−1; Vmax [6]: 8.73 ± 0.08 nmol·mg·protein^−1·min^−1; Km ([7]; [3H]dopamine uptake at 1 min, HEK293 cells expressing hMATE1, mean ± S.E., n=3): 560 ± 180 µM; Vmax ([7]; [3H]dopamine uptake, HEK293 cells expressing hMATE1): 3.71 ± 0.15 nmol·mg·protein^−1·min^−1

Source: publication PMC5000626 (International Journal of Molecular Sciences, 2016)
